Literature values in article PMC2409936, “Phase I and pharmacokinetic study of XR11576, an oral topoisomerase I and II inhibitor, administered on days 1–5 of a 3-weekly cycle in patients with advanced solid tumours” (British Journal of Cancer, 2004).

Tested on: patients
Settings: oral administration; ref Soepenberg et al, 2002; Natelson et al, 1996; Verschraegen et al, 1998; Creemers et al, 1997; Gerrits et al; Mani et al; De Jonge et al, 1999; cited from earlier work
In the case of `CC[C@@]1(O)C(=O)OCc2c1cc1n(c2=O)Cc2cc3c(N)cccc3nc2-1` [9-AC], the “diarrhoea, share of administered cycles” value is listed as 24–54%. For `CC[C@@]1(O)C(=O)OCc2c1cc1n(c2=O)Cc2cc3c(CN(C)C)c(O)ccc3nc2-1` [topotecan], the “diarrhoea, share of administered cycles” value is given as 24–54%. In the case of `CCc1c2c(nc3ccc(OC(=O)N4CCC(N5CCCCC5)CC4)cc13)-c1cc3c(c(=O)n1C2)COC(=O)[C@]3(O)CC` [irinotecan], the “diarrhoea, share of administered cycles” value is listed as 24–54%. In the case of `CC[C@@]1(O)C(=O)OCc2c1cc1n(c2=O)Cc2cc3c([N+](=O)[O-])cccc3nc2-1` [9-nitrocamptothecin], the “diarrhoea, share of administered cycles” value is listed as 24–54%. For `CC[C@@]1(O)C(=O)OCc2c1cc1n(c2=O)Cc2cc3ccccc3nc2-1` [20-S-camptothecin], the “diarrhoea, share of administered cycles” value is given as 24–54%.

Same assay, conditions: prolonged oral administration (21 days), not controlled with loperamide; ref Creemers et al, 1997; cited from earlier work
In the case of `CC[C@@]1(O)C(=O)OCc2c1cc1n(c2=O)Cc2cc3c(CN(C)C)c(O)ccc3nc2-1` [topotecan], the severe diarrhoea is given as 22%.
